Laboratory results as given in article PMC4508201 (Organic & biomolecular chemistry, 2015).
Like-named read-outs stand apart in the source and are kept apart here.

What was measured:
S1PR3 = S1PR3 (Homo sapiens, UniProt Q99500); test: [32P]S1P competitive cell membrane binding assay, S1PR3
recombinant human S1PR2 = recombinant human S1PR2 (Homo sapiens, UniProt O95136); test: [32P]S1P competitive cell membrane binding assay, S1PR2
S1PR1 = S1PR1 (Homo sapiens, UniProt P21453); test: [32P]S1P competitive cell membrane binding assay, S1PR1
Sequence of S1PR1 (P21453 whole entry, species assumed): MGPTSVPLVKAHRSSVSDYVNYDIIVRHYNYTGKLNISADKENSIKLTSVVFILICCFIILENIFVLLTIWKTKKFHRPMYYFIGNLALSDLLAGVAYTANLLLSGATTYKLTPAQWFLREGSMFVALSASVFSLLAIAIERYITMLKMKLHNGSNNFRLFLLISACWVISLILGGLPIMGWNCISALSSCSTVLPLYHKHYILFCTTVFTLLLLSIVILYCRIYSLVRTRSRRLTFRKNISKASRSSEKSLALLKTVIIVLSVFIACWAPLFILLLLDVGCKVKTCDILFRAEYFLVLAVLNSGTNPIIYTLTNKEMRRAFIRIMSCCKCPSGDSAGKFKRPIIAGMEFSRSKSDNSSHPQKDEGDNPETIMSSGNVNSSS

[1] = IC50 S1PR2, competition against [32P]S1P, CHO cell membrane

Sequence of recombinant human S1PR2 (O95136 whole entry): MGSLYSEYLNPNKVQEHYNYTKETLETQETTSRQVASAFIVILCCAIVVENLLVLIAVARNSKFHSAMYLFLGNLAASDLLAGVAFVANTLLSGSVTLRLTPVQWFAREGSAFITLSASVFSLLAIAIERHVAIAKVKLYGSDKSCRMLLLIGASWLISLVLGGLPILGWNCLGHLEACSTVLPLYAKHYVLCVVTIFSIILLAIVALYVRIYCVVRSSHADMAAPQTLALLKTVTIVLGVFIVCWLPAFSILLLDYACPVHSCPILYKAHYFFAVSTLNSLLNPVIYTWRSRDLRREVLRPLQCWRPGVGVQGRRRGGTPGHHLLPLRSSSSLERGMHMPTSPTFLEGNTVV
Sequence of S1PR3 (Q99500 whole entry, species assumed): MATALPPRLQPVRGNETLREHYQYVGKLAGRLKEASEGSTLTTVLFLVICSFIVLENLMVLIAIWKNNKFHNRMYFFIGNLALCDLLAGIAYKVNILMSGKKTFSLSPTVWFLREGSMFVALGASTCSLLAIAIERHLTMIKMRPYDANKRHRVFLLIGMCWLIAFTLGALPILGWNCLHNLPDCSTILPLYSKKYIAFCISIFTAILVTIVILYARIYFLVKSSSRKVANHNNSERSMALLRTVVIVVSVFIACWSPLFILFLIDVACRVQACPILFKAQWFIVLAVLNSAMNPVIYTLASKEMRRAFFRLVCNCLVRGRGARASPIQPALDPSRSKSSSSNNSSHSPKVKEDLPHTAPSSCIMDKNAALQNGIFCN

| Structure (SMILES) | IC50 (S1PR3) | IC50 (recombinant human S1PR2; [1]) | Binding potency for S1PR2 relative to JTE-013 (recombinant human S1PR2; ratio of IC50 values) | IC50 (S1PR1) | IC50 S1PR2 (recombinant human S1PR2; competition against [32P]S1P, CHO cell membrane) | IC50 (S1PR3; read-out: IC50 S1PR3, competition against [32P]S1P) | IC50 (recombinant human S1PR2; read-out: IC50 S1PR2, competition against [32P]S1P, CHO cell membrane) | IC50 (S1PR1; read-out: IC50 S1PR1, competition against [32P]S1P) |
| --- | --- | --- | --- | --- | --- | --- | --- | --- |
| COc1cc(NC(=O)NNc2cc(C(C)C)c3c(C)nn(C)c3n2)cc(Cl)n1 [Compound 5a, N-(2-Chloro-6-methoxypyridin-4-yl)-2-(4-isopropyl-1,3-dimethyl-1H-pyrazolo[3,4-b]pyridin-6-yl)hydrazine-1-carboxamide] | > 1 µM | 0.00952 ± 0.0007 µM | seven-fold more potent | > 1 µM |  |  |  |  |
| Cc1nn(C)c2nc(NNC(=O)Nc3cc(F)nc(Cl)c3)cc(C(C)C)c12 [Compound 5b, N-(2-Chloro-6-fluoropyridin-4-yl)-2-(4-isopropyl-1,3-dimethyl-1H-pyrazolo[3,4-b]pyridin-6-yl)hydrazine-1-carboxamide] | > 1 µM | 0.135 µM |  | > 1 µM |  |  |  |  |
| COCCOc1cc(NC(=O)NNc2cc(C(C)C)c3c(C)nn(C)c3n2)cc(Cl)n1 [Compound 5c, N-(2-Chloro-6-(2-methoxyethoxy)pyridin-4-yl)-2-(4-isopropyl-1,3-dimethyl-1H-pyrazolo[3,4-b]pyridin-6-yl)hydrazine-1-carboxamide] | > 1 µM | 0.234 µM |  | > 1 µM |  |  |  |  |
| COCn1c(Cl)cc(NC(=O)NNc2cc(C(C)C)c3c(C)nn(C)c3n2)cc1=O [Compound 5d, N-(6-Chloro-1-(methoxymethyl)-2-oxo-1,2-dihydropyridin-4-yl)-2-(4-isopropyl-1,3-dimethyl-1H-pyrazolo[3,4-b]pyridin-6-yl)hydrazine-1-carboxamide] | > 1 µM | > 1 µM |  | > 1 µM | No binding potency |  |  |  |
| COCOc1cc(NC(=O)NNc2cc(C(C)C)c3c(C)nn(C)c3n2)cc(Cl)n1 [Compound 5e, N-(2-Chloro-6-(methoxymethoxy)pyridin-4-yl)-2-(4-isopropyl-1,3-dimethyl-1H-pyrazolo[3,4-b]pyridin-6-yl)hydrazine-1-carboxamide] | > 1 µM | 0.00809 ± 0.00091 µM |  | > 1 µM |  |  |  |  |
| Cc1nn(C)c2nc(NNC(=O)Nc3cc(Cl)nc(OCCF)c3)cc(C(C)C)c12 [Compound 5f, N-(2-Chloro-6-(2-fluoroethoxy)pyridin-4-yl)-2-(4-isopropyl-1,3-dimethyl-1H-pyrazolo[3,4-b]pyridin-6-yl)hydrazine-1-carboxamide] | > 1 µM | 0.00812 ± 0.00062 µM |  | > 1 µM |  |  |  |  |
| Cc1nn(C)c2nc(NNC(=O)Nc3cc(Cl)nc(Cl)c3)cc(C(C)C)c12 [JTE-013, reference compound] |  |  |  |  |  | > 1 µM | 0.0685 ± 0.00745 µM | > 1 µM |
